22 compounds from PubChem BioAssay (NCI) can be followed below.

Among the test systems are CCRF-CEM leukemia; MDA-MB-231 breast; DU-145 prostate; MALME-3M melanoma; MCF7 breast; MDA-N; NCI-H460 lung; LOX IMVI melanoma; SK-MEL-2 melanoma; EKVX NSCLC.
Holding throughout (test): inhibition of tumour cell growth, NCI panel, 48 h

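Five concentrations, 48 hours, 96-well plates. TGI is the concentration that stops growth completely.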 Where only a bound is given, the exact number is not on record here.

Regarding `C[N+](C)(C)c1ncnc2c1ncn2C1CCCCO1` (stereo not given), the TGI with CCRF-CEM leukemia, with MDA-MB-231 breast, in the experiment on DU-145 prostate, in the experiment on MALME-3M melanoma, in the experiment on MCF7 breast and in the experiment on MDA-N was above 100 µM each time. Also, the TGI with NCI-H460 lung, with LOX IMVI melanoma, in the experiment on SK-MEL-2 melanoma and in the experiment with EKVX NSCLC was above 100 µM in each case.
In the case of `O=C1c2cccc3cccc(c23)C(=O)N1CCCNOCCONCCCN1C(=O)c2cccc3cccc(c23)C1=O`, the TGI was 91.6 µM with CCRF-CEM leukemia; above 100 µM with MDA-MB-231 breast; above 100 µM with DU-145 prostate; above 100 µM in the experiment on MALME-3M melanoma; above 100 µM in the experiment on MCF7 breast; above 100 µM with MDA-N. Further, the TGI in the experiment on NCI-H460 lung, in the experiment with LOX IMVI melanoma, with SK-MEL-2 melanoma and with EKVX NSCLC was above 100 µM each time.
For `Cc1cc(=O)oc2cc(O)ccc12`, the TGI with CCRF-CEM leukemia, with MDA-MB-231 breast, in the experiment on DU-145 prostate, in the experiment with MALME-3M melanoma, with MCF7 breast and with MDA-N was above 100 µM throughout. In addition, the TGI in the experiment on NCI-H460 lung, in the experiment with LOX IMVI melanoma, in the experiment on SK-MEL-2 melanoma and in the experiment with EKVX NSCLC was above 100 µM each time.
`Cc1ccc(C(=O)/C(C#N)=C/Nc2c(C)n(C)n(-c3ccccc3)c2=O)cc1`: the TGI in the experiment on CCRF-CEM leukemia, with MDA-MB-231 breast, in the experiment with DU-145 prostate, in the experiment with MALME-3M melanoma, in the experiment on MCF7 breast and in the experiment with MDA-N was above 100 µM throughout. The TGI in the experiment on NCI-H460 lung, with LOX IMVI melanoma, in the experiment with SK-MEL-2 melanoma and in the experiment with EKVX NSCLC was above 100 µM in each case.
As for `COC(=O)C1(Cc2ccccc2)Cc2ccccc2C1`, the TGI with CCRF-CEM leukemia was 42.4 µM; in the experiment on MDA-MB-231 breast, above 100 µM; with DU-145 prostate, above 100 µM; in the experiment with MALME-3M melanoma, 35.4 µM; with MCF7 breast it was above 100 µM; with MDA-N it was 49.3 µM. Moreover, the TGI stood at 84.9 µM in the experiment on NCI-H460 lung, 88 µM in the experiment on LOX IMVI melanoma, 25.8 µM in the experiment on SK-MEL-2 melanoma and 89.4 µM with EKVX NSCLC.
For `CC(=O)N1CCN(C23OC4(N5CCN(C(C)=O)CC5)C5C6CC(C7C6C4C72)C53)CC1` (stereo not given), the TGI with CCRF-CEM leukemia, with MDA-MB-231 breast, in the experiment with DU-145 prostate, in the experiment with MALME-3M melanoma, in the experiment on MCF7 breast and in the experiment with MDA-N was above 100 µM each time. In addition, the TGI with NCI-H460 lung, in the experiment with LOX IMVI melanoma, with SK-MEL-2 melanoma and in the experiment on EKVX NSCLC was above 100 µM in each case.
Regarding `COc1cc(C2S/C(=C/c3ccccc3)C(=O)N2c2ccc(Cl)c(Cl)c2)cc(OC)c1OC` (stereo not given), the TGI was above 100 µM in the experiment on CCRF-CEM leukemia; above 100 µM in the experiment on MDA-MB-231 breast; above 100 µM in the experiment on DU-145 prostate; above 100 µM in the experiment on MALME-3M melanoma; above 87.7 µM in the experiment with MCF7 breast; above 84.9 µM in the experiment with MDA-N. The TGI was above 100 µM in the experiment with NCI-H460 lung, above 100 µM with LOX IMVI melanoma, above 59.6 µM in the experiment with SK-MEL-2 melanoma and above 100 µM with EKVX NSCLC.
Regarding `CC1(C)Oc2ccc(NC(=O)CCC(N)C(=O)O)cc2O1` (stereo not given), the TGI in the experiment with CCRF-CEM leukemia, in the experiment with MDA-MB-231 breast, with DU-145 prostate, with MALME-3M melanoma, in the experiment with MCF7 breast and with MDA-N was above 100 µM each time. For the same compound, the TGI in the experiment on NCI-H460 lung, with LOX IMVI melanoma, with SK-MEL-2 melanoma and in the experiment with EKVX NSCLC was above 100 µM in each case.
Take `COc1cc2c(/C=C3/C(=O)N(c4ccccc4)c4ccccc43)c(Cl)[nH]c2cc1C`: the TGI was above 38.5 µM in the experiment with CCRF-CEM leukemia; 27 µM in the experiment on MDA-MB-231 breast; 9.82 µM in the experiment on DU-145 prostate; 19 µM with MALME-3M melanoma; above 79 µM in the experiment on MCF7 breast; 5.52 µM in the experiment on MDA-N. Moreover, the TGI is 9.04 µM in the experiment with NCI-H460 lung, 10.2 µM in the experiment with LOX IMVI melanoma, 8.25 µM with SK-MEL-2 melanoma and above 31.4 µM in the experiment with EKVX NSCLC.
Take `CN(Cc1cnc2nc(N)nc(N)c2n1)c1ccc(C(=O)NC(CCC(=O)NC(P(=O)(O)O)P(=O)(O)O)C(=O)O)cc1` (stereo not given): the TGI in the experiment with CCRF-CEM leukemia, in the experiment on MDA-MB-231 breast, with DU-145 prostate, in the experiment on MALME-3M melanoma, in the experiment with MCF7 breast and with MDA-N was above 100 µM throughout. The TGI with NCI-H460 lung, in the experiment on LOX IMVI melanoma, in the experiment on SK-MEL-2 melanoma and with EKVX NSCLC was above 100 µM throughout.
On to `Cc1c(-c2ccccc2)c(C#N)c2nnc(C(N)=O)c(N)n12`, for which the TGI in the experiment on CCRF-CEM leukemia, with MDA-MB-231 breast, in the experiment with DU-145 prostate, with MALME-3M melanoma, with MCF7 breast and in the experiment on MDA-N was above 100 µM in each case. Also, the TGI in the experiment on NCI-H460 lung, in the experiment on LOX IMVI melanoma, with SK-MEL-2 melanoma and in the experiment on EKVX NSCLC was above 100 µM throughout.
Take `CN(C)CCNc1ncnc2nc(-c3ccc4ccccc4c3)[nH]c12`: the TGI in the experiment with CCRF-CEM leukemia, in the experiment with MDA-MB-231 breast, in the experiment on DU-145 prostate, in the experiment with MALME-3M melanoma, in the experiment with MCF7 breast and in the experiment on MDA-N was above 100 µM each time. Besides, the TGI with NCI-H460 lung, in the experiment on LOX IMVI melanoma, in the experiment with SK-MEL-2 melanoma and with EKVX NSCLC was above 100 µM throughout.
Regarding `Cn1nc(S(N)(=O)=O)s/c1=N/C(N)=S`, the TGI with CCRF-CEM leukemia, with MDA-MB-231 breast, in the experiment on DU-145 prostate, in the experiment on MALME-3M melanoma, with MCF7 breast and with MDA-N was above 100 µM each time. Also, the TGI with NCI-H460 lung, in the experiment on LOX IMVI melanoma, in the experiment on SK-MEL-2 melanoma and with EKVX NSCLC was above 100 µM in each case.
`COc1ccc(OC)c2c1C1CCC(=O)N1CN2C(C)=O` (stereo not given): the TGI in the experiment with CCRF-CEM leukemia, in the experiment on MDA-MB-231 breast, in the experiment on DU-145 prostate, in the experiment on MALME-3M melanoma, with MCF7 breast and in the experiment on MDA-N was above 100 µM in each case. For the same compound, the TGI in the experiment with NCI-H460 lung, in the experiment with LOX IMVI melanoma, in the experiment with SK-MEL-2 melanoma and in the experiment on EKVX NSCLC was above 100 µM throughout.
As for `O=c1oc2ccc(Cl)cc2cc1-c1cn2cc(Cl)ccc2n1`, the TGI in the experiment with CCRF-CEM leukemia is above 100 µM; with MDA-MB-231 breast it was above 100 µM; in the experiment on DU-145 prostate it was above 100 µM; in the experiment on MALME-3M melanoma it was 92.5 µM; with MCF7 breast, 6.37 µM; in the experiment on MDA-N, 2.79 µM. Moreover, the TGI in the experiment with NCI-H460 lung, in the experiment with LOX IMVI melanoma, with SK-MEL-2 melanoma and in the experiment on EKVX NSCLC was above 100 µM in each case.
Turning to `CCc1c(C)c(C#N)c(=S)n(C2OC(CO)C(O)C(O)C2O)c1C` (stereo not given), the TGI in the experiment with CCRF-CEM leukemia, with MDA-MB-231 breast, in the experiment with DU-145 prostate, in the experiment on MALME-3M melanoma, in the experiment on MCF7 breast and in the experiment on MDA-N was above 100 µM each time. The TGI in the experiment with NCI-H460 lung, in the experiment on LOX IMVI melanoma, in the experiment with SK-MEL-2 melanoma and in the experiment on EKVX NSCLC was above 100 µM each time.
For `[N-]=[N+]=Nc1ccc(CNc2cc(=O)[nH]c(=O)[nH]2)cc1`, the TGI with CCRF-CEM leukemia, with MDA-MB-231 breast, with DU-145 prostate, in the experiment on MALME-3M melanoma, in the experiment on MCF7 breast and with MDA-N was above 100 µM in each case. The TGI in the experiment with NCI-H460 lung, in the experiment with LOX IMVI melanoma, with SK-MEL-2 melanoma and in the experiment on EKVX NSCLC was above 100 µM throughout.
For the compound `Cn1c2ccccc2c2c3c(c4c5ccccc5n(C)c4c21)C(=O)c1ccccc1C3=O`, the TGI in the experiment with CCRF-CEM leukemia is above 100 µM; with MDA-MB-231 breast it was 79.1 µM; with DU-145 prostate, above 100 µM; in the experiment on MALME-3M melanoma, 60 µM; in the experiment on MCF7 breast, above 100 µM; in the experiment on MDA-N, above 100 µM. For the same compound, the TGI in the experiment with NCI-H460 lung, in the experiment with LOX IMVI melanoma, with SK-MEL-2 melanoma and in the experiment on EKVX NSCLC was above 100 µM each time.
Consider `CCO/C(O)=C(/C(=N)N1CCCC1)C(=O)Nc1cccc(C(F)(F)F)c1`, for which the TGI with CCRF-CEM leukemia, in the experiment on MDA-MB-231 breast, with DU-145 prostate, in the experiment with MALME-3M melanoma, in the experiment on MCF7 breast and in the experiment with MDA-N was above 100 µM throughout. Moreover, the TGI in the experiment with NCI-H460 lung, in the experiment on LOX IMVI melanoma, in the experiment on SK-MEL-2 melanoma and in the experiment with EKVX NSCLC was above 100 µM each time.
On to `O=C(CNc1ccc(Cl)cc1Cl)NC1C=Cc2ccc(S(=O)(=O)Nc3ccc(Cl)cc3Cl)cc2C1=O` (stereo not given), for which the TGI in the experiment on CCRF-CEM leukemia, in the experiment with MDA-MB-231 breast, in the experiment with DU-145 prostate, in the experiment with MALME-3M melanoma, with MCF7 breast and in the experiment with MDA-N was above 100 µM in each case. Besides, the TGI with NCI-H460 lung, with LOX IMVI melanoma, with SK-MEL-2 melanoma and with EKVX NSCLC was above 100 µM each time.
With `CC1(COS(=O)(=O)OCC2(C)COS(=O)(=O)OC2)COS(=O)(=O)OC1`, the TGI in the experiment with CCRF-CEM leukemia is above 64.4 µM; in the experiment with MDA-MB-231 breast it was above 100 µM; with DU-145 prostate, above 88.6 µM; in the experiment on MALME-3M melanoma it was above 100 µM; in the experiment with MCF7 breast, above 59.9 µM; in the experiment on MDA-N, above 100 µM. Moreover, the TGI with NCI-H460 lung was above 100 µM; in the experiment with LOX IMVI melanoma, above 77.9 µM; with SK-MEL-2 melanoma, above 100 µM; with EKVX NSCLC, above 100 µM.
As for `CC(=O)c1cc2ccccc2n(O)c1=N`, the TGI with CCRF-CEM leukemia, in the experiment with MDA-MB-231 breast, with DU-145 prostate, in the experiment on MALME-3M melanoma, with MCF7 breast and in the experiment on MDA-N was above 100 µM in each case. Further, the TGI with NCI-H460 lung, in the experiment with LOX IMVI melanoma, with SK-MEL-2 melanoma and in the experiment on EKVX NSCLC was above 100 µM throughout.
